Key:
A. baumannii DMCI = assay: Mouse burn wound infection model, A. baumannii DMCI, six groups; type: in vivo; settings: C57BL/6 mice, 24 hours after burn, colistin 4 μg/ml, treatment immediately after inoculation
Description: An established mouse wound model is used for these tests. Female pathogen-free C57BL/6 mice (Harlan, Indianapolis, Ind.), 12 weeks old, weighing ˜20-25 grams are used in all experiments. The skin over the lumbrosacral and back region is clipped using a 35-W model 5-55E electrical clipper (Oyster-Golden A-S, Head no. 80, blade size 40) by using the method described by Ipaktchi et al. with slight modification. Two hundred microliters of 0.9% saline suspension of A. baumannii DMCI (I×10^6 cells/ml), which is a highly colistin resistant clinical strain, is used for wound infection experiments. Viable bacterial numbers are determined 24 hours after burn. The Student t-test is used for statistical analysis.
Experiments are carried out in six groups (I) a control group, which contains neither apyrase nor colistin; (2) potato apyrase group, which contains potato apyrase (I U/ml); (3) colistin group, which contains colistin (4 μg/ml); (4) potato apyrase and colistin group, (5) Apyrase Agent group, (6) Apyrase Agent and colistin group.
The treatment is applied immediately after inoculation. After 24 hours, the mice are given lethal IP injections of pentobarbital (150 mg/kg) and skin samples are collected using a scalpel and scissors.

[1] = system: Burkholderia cepacia GIIIb AU0055; assay: Killing of Burkholderia cepacia GIIIb AU0055 by colistin with Apyrase Agent, CFU count; type: cell-based; settings: colistin at less than 10 μg/ml, with Apyrase Agent 2 U/ml or alone
Description: (§1) In this Example (and in subsequent Examples), the colistin is colistin sulfate salt, catalog number C4461 from Sigma-Aldrich (St. Louis, Mo.) and the apyrase is catalog number M0393L from New England BioLabs Inc. (Ipswich, Mass.).
(§2) Burkholderia cepacia GIIIb AU0055 is grown in the presence of combinations of 0 and 2 U/ml of Apyrase Agent and approximately 0 to 20 μg/ml of colistin. After incubation, the numbers of viable cells are determined by counting the colony forming units (CFU) on the plate (data provided as CFU/ml). Apyrase Agent improves the efficiency of killing Burkholderia cepacia GIIIb AU0055 by colistin. Apyrase Agent increases the effectiveness of colistin at less than 10 μg/ml such that less than 10 to 100 CFU/ml are detected relative to greater than 10^4 to 10^5 in the presence of colistin alone at the same concentrations.

[2] = system: Burkholderia multivorans AU0801; assay: Killing of Burkholderia multivorans AU0801 by colistin with Apyrase Agent, CFU count; type: cell-based; settings: colistin at less than 10 μg/ml, with Apyrase Agent 2 U/ml or alone
Description: as §1
as §2, with “multivorans AU0801” for “cepacia GIIIb AU0055”, “10^5” for “10^4”, “10^6” for “10^5”

P. aeruginosa AU0584 = assay: Killing of P. aeruginosa AU0584 by colistin with Apyrase Agent, CFU count; type: cell-based; settings: colistin at less than 10 μg/ml, with Apyrase Agent 2 U/ml or alone
Description: as §1
(§3) P. aeruginosa AU0584 is grown in the presence of combinations of 0 and 2 U/ml of Apyrase Agent and approximately 0 to 20 μg/ml of colistin. After incubation, the numbers of viable cells are determined by counting the colony forming units (CFU) on the plate (data provided as CFU/ml). Apyrase Agent improves the efficiency of killing P. aeruginosa AU0584 by colistin. Apyrase Agent increases the effectiveness of colistin at less than 10 μg/ml such that less than 10 to 100 CFU/ml are detected relative to greater than 10^3 to 10^4 in the presence of colistin alone at the same concentrations.

[3] = system: P. aeruginosa strain AU1292; assay: Killing of P. aeruginosa AU1292 by colistin with Apyrase Agent, CFU count; type: cell-based; settings: colistin at less than 20 μg/ml, with Apyrase Agent 2 U/ml or alone
Description: as §1
as §3, with “P. aeruginosa strain AU1292 is grown” for “P. aeruginosa AU0584 is grown”, “P. aeruginosa strain AU1292 by colistin.” for “P. aeruginosa AU0584 by colistin.”, “less than 20 μg/ml such” for “less than 10 μg/ml such”, “greater than 10^4 to 10^5” for “greater than 10^3 to 10^4”, “10^4 to 10^5 in the” for “10^3 to 10^4 in the”

A. baumannii ATCC DMCI = assay: Mouse model for wound infection and healing (burn), A. baumannii ATCC DMCI, treatment 24 hours after inoculation; type: in vivo; settings: wounds treated 24 hours after inoculation, skin collected 48 hours after the burn
Description: e.g., in a mouse model for wound infection and healing. After a burn, A. baumannii ATCC DMCI is inoculated on skin. After 24 hours, the wounds are treated with Apyrase Agent alone, colistin alone, or Apyrase Agent and colistin in combination. Skin samples are collected after another 24 hours and the CFU/g skin of A baumannii ATCC DMCI is determined. […] In the presence of Apyrase Agent or colistin alone, A. baumannii is detected at amounts of approximately 10^8 CFU/g of skin.

[4] = system: Burkholderia cepacia AU1114; assay: Killing of Burkholderia cepacia AU1114 by colistin with Apyrase Agent, CFU count; type: cell-based; settings: colistin at less than 20 μg/ml, with Apyrase Agent 2 U/ml or alone
Description: as §1
Burkholderia cepacia AU1114 is grown in the presence of combinations of 0 and 2 U/ml of Apyrase Agent and approximately 0 to 20 μg/ml of colistin. After incubation, the numbers of viable cells are determined by counting the colony forming units (CFU) on the plate (data provided as CFU/ml). Apyrase Agent improves the efficiency of killing Burkholderia cepacia AU1114 by colistin. Apyrase Agent increases the effectiveness of colistin at less than 20 μg/ml such that less than 10 to 100 CFU/ml are detected relative to greater than 10^5 to 10^6 in the presence of colistin alone at the same concentrations.

A. baumannii strain DMCI = assay: Killing of A. baumannii DMCI by colistin with Apyrase Agent, CFU count; type: cell-based; settings: about 10^6 CFU/ml inoculum; Apyrase Agent 1 and 2 U/ml with colistin, or colistin alone at the same concentrations (4-32 μg/ml)
Description: as §1
Approximately 10^6 CFU/ml of A. baumannii strain DMCI is grown on solid medium culture plates in the presence of combinations of 0, 1, and 2 U/ml of Apyrase Agent and 0, 4, 8, 16, and 32 μg/ml of colistin. After incubation, the numbers of viable cells are determined by counting the colony forming units (CFU) on the plate (data provided as CFU/ml).

With colistin sulfate salt the “viable bacteria number recovered from burn sites” value (A. baumannii DMCI) was “highest viable bacteria number”, the “numbers of viable cells (CFU)” value [1] was 10^4 to 10^5 CFU/ml and the “numbers of viable cells (CFU)” value [2] was 10^5 to 10^6 CFU/ml. The “numbers of viable cells (CFU)” value (P. aeruginosa AU0584) was 10^3 to 10^4 CFU/ml, the “numbers of viable cells (CFU)” value [3] was 10^4 to 10^5 CFU/ml and the “A. baumannii detected on skin” value (A. baumannii ATCC DMCI) was “approximately 10^8 CFU/g of skin”. The “numbers of viable cells (CFU)” value [4] was 10^5 to 10^6 CFU/ml and the viable cell count (A. baumannii strain DMCI) was “approximately 10^7 CFU/ml”.
